According to US10457619B2, “Resorcinol derivatives for cosmetic use thereof” (L'OREAL, priority 2015, dated 2019):

What follows are compounds tested on normal human melanocytes (assay: Activity on constitutive melanogenesis: melanin production by normal human melanocytes in vitro). Details: Melanocyte, 72 hours incubation, optical density, maximum concentration tested 200 μM, read-out: IC50 (μM): concentration at which a 50% decrease in melanin synthesis is achieved.
Format: cell-based
Method: For the evaluations of the effect of preventing or decreasing pigmentation of the skin and/or of lightening of this skin, the examples are performed in the following manner.
The measurement of the depigmenting activity (reduction of melanin production) of compounds of formula (I) was performed by assaying normal human melanocytes in vitro as follows.
First of all, normal human melanocytes were cultured and dispensed into 384 wells. After 24 hours, the culture medium was replaced with a medium containing compounds of formula (I) to be evaluated. The cells were incubated for 72 hours before measurement of the final optical density, which measures the amount of melanin produced by the melanocytes. A dose effect was performed using a wide concentration range of the compounds evaluated. Thus, by making the concentrations and the melanin measurements correspond, it was possible to determine an IC50 in μM: concentration at which a 50% decrease in melanin synthesis is achieved.

Point of comparison: `CC(CCO)c1ccc(O)cc1O` (stereo not drawn) [Compound 1, 4-(3-hydroxy-1-methylpropyl) benzene-1,3-diol], IC50 3.61 µM. Against it:
- CC(=O)OCCC(C)c1ccc(OC(C)=O)cc1OC(C)=O (stereo not drawn) [Compound 2, 4-[4-(acetyloxy)but-2-yl]benzene-1,3-diyl diacetate] — within 1.5-fold, 4.08 µM
- CC(=O)OCCC(C)c1ccc(O)cc1O (stereo not drawn) [Compound 3, 3-(2,4-dihydroxyphenyl) butyl acetate] — within 1.5-fold, 4.96 µM
- OCCCc1ccc(O)cc1O [compound (A), reference compound] — 6.5-fold higher, 23.4 µM

The compounds below were run on pigmented reconstructed epidermides (keratinocytes and melanocytes of European origin, Episkin) (assay: Depigmenting activity on pigmented reconstructed epidermis (melanin quantified by image analysis, Fontana-Masson stain)). Details: compounds at 30 μM in DMSO, added to culture medium.
Format: cell-based, human
Method: The aim of this test is to evaluate the modulation of melanogenesis in pigmented reconstructed epidermides after “systemic” application of the products. • The compounds are tested at 30 μM in DMSO. • The pigmented epidermides are reconstructed using keratinocytes and melanocytes of European origin seeded on the substrate BPER (Episkin). The test products are added to the culture medium immediately on seeding the cells and at all the changes of medium.
The pigmented reconstructed epidermis standard study model was published by:
Regnier M., Duval C., Galey J. B., Philippe M., Lagrange A., Tuloup R., Schmidt R., Cellular and Molecular Biology, 1999, 45, 7, 969-980: “Keratinocyte-melanocyte co-cultures and pigmented reconstructed human epidermis: models to study modulation of melanogenesis”.
The melanin was quantified by image analysis on histological sections after revelation with Fontana-Masson stain. Each stained epidermis is photographed over its entire length using a camera connected to a microscope.
The decrease in the amount of melanin is evaluated relative to the solvent (DMSO)

Point of comparison: `CC(CCO)c1ccc(O)cc1O` (stereo not drawn) [Compound 1, 4-(3-hydroxy-1-methylpropyl) benzene-1,3-diol], “Depigmenting activity/DMSO (decrease in the amount of melanin relative to the solvent)” value −59%. Against it:
- CCCCc1ccc(O)cc1O [Lucinol, reference compound] — higher, −41%
